The text below walks through data of ChEMBL document CHEMBL1201862, “PubChem BioAssay data set” (2004).

Structures are written as SMILES. Activity calls are given as the source filed them. Some results are limits rather than exact numbers.

In one assay the target is T1, Coagulation factor XII (Homo sapiens, UniProt P00748).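 Note: activated factor XIIa alpha cleaving a fluorogenic AMC peptide substrate; inhibitor potency from loss of enzyme activity.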
T1 sequence (P00748 whole entry): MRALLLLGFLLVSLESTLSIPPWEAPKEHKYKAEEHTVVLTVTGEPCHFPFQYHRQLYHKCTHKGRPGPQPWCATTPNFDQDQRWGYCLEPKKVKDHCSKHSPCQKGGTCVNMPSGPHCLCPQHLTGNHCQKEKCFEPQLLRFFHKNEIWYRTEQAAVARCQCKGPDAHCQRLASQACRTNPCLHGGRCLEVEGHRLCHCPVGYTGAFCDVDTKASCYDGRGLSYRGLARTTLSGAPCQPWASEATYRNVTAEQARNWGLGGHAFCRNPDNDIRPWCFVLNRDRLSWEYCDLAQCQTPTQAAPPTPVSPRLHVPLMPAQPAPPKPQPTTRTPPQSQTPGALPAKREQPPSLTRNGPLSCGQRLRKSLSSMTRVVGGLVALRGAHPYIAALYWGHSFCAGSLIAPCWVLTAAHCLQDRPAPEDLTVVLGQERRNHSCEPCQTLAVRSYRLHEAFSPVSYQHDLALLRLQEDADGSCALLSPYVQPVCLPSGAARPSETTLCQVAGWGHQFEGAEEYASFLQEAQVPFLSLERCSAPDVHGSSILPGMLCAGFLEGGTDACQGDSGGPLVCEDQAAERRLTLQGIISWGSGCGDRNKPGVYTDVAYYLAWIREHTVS
Format: functional.

The target in assay [1] is T2, Carboxy-terminal domain RNA polymerase II polypeptide A small phosphatase 1 (Homo sapiens, UniProt Q9GZU7).
T2 sequence (Q9GZU7 whole entry): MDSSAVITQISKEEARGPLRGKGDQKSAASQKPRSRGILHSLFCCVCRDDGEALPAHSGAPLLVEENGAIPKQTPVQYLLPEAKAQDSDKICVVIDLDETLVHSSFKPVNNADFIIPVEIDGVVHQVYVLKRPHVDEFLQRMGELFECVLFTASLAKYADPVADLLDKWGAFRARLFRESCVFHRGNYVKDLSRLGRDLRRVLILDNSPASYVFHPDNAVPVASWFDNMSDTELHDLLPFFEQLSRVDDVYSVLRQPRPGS
The assay can be described thus: inhibitors of CTDSP1, concentration-response testing, biochemical assay, absorbance-based, actives from ultra-high-throughput screening (AID 540297). Format: functional.

Assay [2] addresses DNA dC->dU-editing enzyme APOBEC-3G (Homo sapiens, UniProt Q9HC16). Format: functional.
The target of assay [3] is DNA dC->dU-editing enzyme APOBEC-3A (Homo sapiens, UniProt P31941). Nature of the assay: Dose Response confirmation of small molecule APOBEC3A DNA Deaminase Inhibitors via a fluorescence-based single-stranded DNA deaminase assay. [Related pubchem assays (depositor defined):AID493011, AID493024]. Format: functional.
The target in assay [4] is T3, Short transient receptor potential channel 4 (Mus musculus, UniProt Q9QUQ5).
T3 sequence (Q9QUQ5 whole entry): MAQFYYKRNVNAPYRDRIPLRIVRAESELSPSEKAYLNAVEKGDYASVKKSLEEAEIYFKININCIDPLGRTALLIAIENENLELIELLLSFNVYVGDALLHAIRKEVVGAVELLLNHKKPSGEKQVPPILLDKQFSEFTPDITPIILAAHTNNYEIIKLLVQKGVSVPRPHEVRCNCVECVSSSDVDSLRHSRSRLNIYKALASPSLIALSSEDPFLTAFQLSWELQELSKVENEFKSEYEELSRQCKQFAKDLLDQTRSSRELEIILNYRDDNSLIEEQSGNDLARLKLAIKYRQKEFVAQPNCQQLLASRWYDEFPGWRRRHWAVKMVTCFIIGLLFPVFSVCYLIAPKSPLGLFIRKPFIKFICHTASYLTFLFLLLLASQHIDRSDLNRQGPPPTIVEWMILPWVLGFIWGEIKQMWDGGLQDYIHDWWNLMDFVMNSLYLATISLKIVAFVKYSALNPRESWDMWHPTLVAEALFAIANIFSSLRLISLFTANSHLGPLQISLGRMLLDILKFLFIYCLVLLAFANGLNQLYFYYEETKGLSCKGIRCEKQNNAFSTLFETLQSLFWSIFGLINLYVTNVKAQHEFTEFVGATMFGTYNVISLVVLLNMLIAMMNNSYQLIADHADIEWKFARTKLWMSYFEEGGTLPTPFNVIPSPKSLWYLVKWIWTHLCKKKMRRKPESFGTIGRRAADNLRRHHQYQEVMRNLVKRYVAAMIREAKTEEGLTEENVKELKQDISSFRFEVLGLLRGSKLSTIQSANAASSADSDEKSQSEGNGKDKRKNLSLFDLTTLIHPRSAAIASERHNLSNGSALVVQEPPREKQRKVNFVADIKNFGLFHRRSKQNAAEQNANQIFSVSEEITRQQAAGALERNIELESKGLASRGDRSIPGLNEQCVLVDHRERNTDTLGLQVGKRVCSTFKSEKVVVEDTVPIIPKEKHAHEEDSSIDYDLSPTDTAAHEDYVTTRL
The assay can be described thus: mouse TRPC4 channel inhibitors, dose response, cell-based, HEK293 TRPC4/mu-opioid, Fluo-4 calcium (AID 434942).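 Note: potency of inhibitors blocking the TRPC4 calcium response.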 Format: functional.

The target of assay [5] is Dual specificity tyrosine-phosphorylation-regulated kinase 1A (Rattus norvegicus, UniProt Q63470). Format: biochemical, Homo sapiens.
The target of assay [6] is T3, Short transient receptor potential channel 4. Nature of the assay: mouse TRPC4 channel activators, dose response, cell-based, HEK293 TRPC4/mu-opioid, Fluo-4 calcium (AID 434937). Format: functional.
In assay [7] the target is T4, High affinity choline transporter 1 (Homo sapiens, UniProt Q9GZV3).
T4 sequence (Q9GZV3 whole entry): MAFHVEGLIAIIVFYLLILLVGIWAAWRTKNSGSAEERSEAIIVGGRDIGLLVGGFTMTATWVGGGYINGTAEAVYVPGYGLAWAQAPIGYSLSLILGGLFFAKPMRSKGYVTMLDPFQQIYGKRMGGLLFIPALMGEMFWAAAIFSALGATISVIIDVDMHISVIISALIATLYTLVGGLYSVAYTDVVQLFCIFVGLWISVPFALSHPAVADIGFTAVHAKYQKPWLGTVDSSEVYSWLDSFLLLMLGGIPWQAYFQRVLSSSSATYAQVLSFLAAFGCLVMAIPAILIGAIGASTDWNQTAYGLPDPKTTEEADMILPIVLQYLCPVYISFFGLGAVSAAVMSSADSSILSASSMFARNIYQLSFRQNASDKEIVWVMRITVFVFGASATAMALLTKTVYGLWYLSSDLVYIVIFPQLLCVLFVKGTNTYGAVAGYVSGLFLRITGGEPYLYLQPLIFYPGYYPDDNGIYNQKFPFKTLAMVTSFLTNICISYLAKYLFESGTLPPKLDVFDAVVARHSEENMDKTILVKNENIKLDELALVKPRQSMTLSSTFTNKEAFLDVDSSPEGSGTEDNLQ
The assay can be described thus: CHT inhibitors, dose response, cell-based, 5-point CRC, membrane potential dye (AID 504840). Format: functional.

Assay [8] addresses Eukaryotic translation initiation factor 4H (Homo sapiens, UniProt Q15056). The assay can be described thus: human eIF4H binding inhibitors, primary screen, translation initiation inhibitor project, biochemical, uHTS, fluorescence polarization (AID 2012).
Assay [9] addresses Polyadenylate-binding protein 1 (Homo sapiens, UniProt P11940). Nature of the assay: PABP poly(A) RNA binding inhibitors, primary screen, biochemical, fluorescence polarization, uHTS (AID 2014).

Sequence of DNA dC->dU-editing enzyme APOBEC-3G (Q9HC16 whole entry): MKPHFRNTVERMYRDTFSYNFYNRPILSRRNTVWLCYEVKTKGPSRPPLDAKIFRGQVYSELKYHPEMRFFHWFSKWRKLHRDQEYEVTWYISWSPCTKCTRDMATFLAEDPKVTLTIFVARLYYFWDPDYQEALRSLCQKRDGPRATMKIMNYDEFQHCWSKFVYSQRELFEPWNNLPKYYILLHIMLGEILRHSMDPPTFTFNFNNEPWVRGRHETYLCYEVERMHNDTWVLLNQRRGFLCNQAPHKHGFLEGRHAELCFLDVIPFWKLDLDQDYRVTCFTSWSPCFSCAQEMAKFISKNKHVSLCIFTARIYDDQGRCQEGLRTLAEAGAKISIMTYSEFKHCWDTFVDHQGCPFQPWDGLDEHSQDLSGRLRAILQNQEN
Sequence of DNA dC->dU-editing enzyme APOBEC-3A (P31941 whole entry): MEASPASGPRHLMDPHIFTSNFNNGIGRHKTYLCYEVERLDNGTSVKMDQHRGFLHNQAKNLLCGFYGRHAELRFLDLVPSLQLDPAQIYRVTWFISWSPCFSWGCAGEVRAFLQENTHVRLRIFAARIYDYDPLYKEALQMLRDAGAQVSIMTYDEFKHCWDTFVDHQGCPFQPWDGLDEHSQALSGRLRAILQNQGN
Sequence of Polyadenylate-binding protein 1 (P11940 whole entry): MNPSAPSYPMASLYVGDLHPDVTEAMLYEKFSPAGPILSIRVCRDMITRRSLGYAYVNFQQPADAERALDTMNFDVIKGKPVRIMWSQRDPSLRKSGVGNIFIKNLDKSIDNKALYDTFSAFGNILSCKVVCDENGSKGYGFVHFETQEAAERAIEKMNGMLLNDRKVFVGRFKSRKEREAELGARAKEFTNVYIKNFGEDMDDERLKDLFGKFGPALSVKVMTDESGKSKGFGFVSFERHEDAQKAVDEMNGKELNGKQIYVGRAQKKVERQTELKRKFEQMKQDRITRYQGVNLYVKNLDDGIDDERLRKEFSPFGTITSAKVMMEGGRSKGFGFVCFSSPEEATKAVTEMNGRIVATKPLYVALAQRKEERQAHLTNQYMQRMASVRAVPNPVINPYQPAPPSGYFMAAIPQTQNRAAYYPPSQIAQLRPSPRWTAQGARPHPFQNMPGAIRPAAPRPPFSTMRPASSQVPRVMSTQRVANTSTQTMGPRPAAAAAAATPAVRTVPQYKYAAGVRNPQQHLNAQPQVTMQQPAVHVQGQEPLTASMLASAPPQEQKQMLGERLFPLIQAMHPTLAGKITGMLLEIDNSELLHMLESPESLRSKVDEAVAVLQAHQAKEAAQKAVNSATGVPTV

For the compound `O=C(NCc1ccco1)c1ccc2c(c1)CCO2`, the IC50 at Coagulation factor XII is > 50 µM (inactive).

In the case of `Fc1ccccc1Sc1ccccc1CNC1=NCCN1`, the results for the IC50 in assay [1], in assay [2] and in [3] were 4.12 µM (active), 2.77 µM (active) and 1.35 µM (active), respectively. For the same compound, the EC50 in assay [4] was 0.944 µM (active).

Consider `CCCN(CCC)CCNC(=O)c1cc2c(=O)n(C)c3ccccc3c2n1C`, for which the AC50 in [5] was 13.4 µM (active).

Consider `Cc1ccc2c(C)c(C(=O)Nc3nnc(C)s3)oc2c1`, for which, on Coagulation factor XII, the IC50 was > 50 µM (inactive).

As for `Cc1c(C)n(CCC#N)c2ccccc12`, the IC50 on Coagulation factor XII was > 50 µM (inactive).

With `CCOC(=O)C1(CCOc2ccccc2)CCN(Cc2cc(OC)ccc2OC)CC1`, the EC50 in assay [6] is 3.76 µM (active).

Turning to `N=C1C[N+](CC23CC4CC(CC(C4)C2)C3)=NO1`, the IC50 in assay [7] is 13.5 µM (active). Moreover, in [6], the EC50 was 1.06 µM (active).

With `CC/C(=N\NC(=S)NC(C)C)c1ccc(OC(F)F)cc1`, the IC50 at Coagulation factor XII is > 50 µM (inactive).

As for `C[n+]1cccc(/C=N/NC(=O)CC23CC4CC(CC(C4)C2)C3)c1`, the IC50 is 3.28 µM (active) in [2], > 100 µM (inactive) in [8], 3.04 µM (active) in [3] and 5.14 µM (active) in [9].

Take `COc1ccc2[nH]c3c(c2c1)CCNC3=O`: in assay [5], the AC50 is 0.845 µM (active).
